Experimental data from patent US12404285B2, “KRAS G12D proteolysis targeting chimeras” (PAQ Therapeutics Inc., priority 2022, dated 2025).

Columns and labels:
[1] = molecular target: T1, KRAS in AGS cells (KRAS G12D mutant cell line) or LS180 cells (KRAS G12D mutant cell line) (Homo sapiens, UniProt P01116, G12D); experiment: KRAS Western Blot (WB) assay; type: cell-based; conditions: KRAS degradation, 24 hours incubation, normalized to β-actin
T1 construct: CRL-187 (LS180) (so in the source); host or cells: AGS or LS180 cells
Experimental: Day 1. Seeded AGS cells (KRAS G12D mutant cell line, ATCC, CRL-1739) or LS180 cells (KRAS G12D mutant cell line, ATCC, CRL-187) into 6-well plates (cell density: 3×10^5 cells/well/2 ml medium) in Ham's F-12 medium (Invitrogen, 11765-054) or Eagle's Minimum Essential Medium (ATCC, 30-2003) and incubated overnight at 37° C. and 5% CO2.
Day 2. Aspirated 1 ml medium from each well and added 1 ml medium containing DMSO or test compound into the well to achieve the desired final concentration. Mixed well by gentle shaking and incubated for 24 hours.
Day 3. Aspirated media from plates; washed cells with 2 ml 4° C. PBS (Solarbio, P1020-500) and aspirated the PBS. Then added 100 μl 4° C. […] lysis buffer (Boston BioProducts BP-115D) with protease and phosphatase inhibitors at vendor recommended concentrations (Roche 05892791001 and 04906837001) into each well to lyse the cells, and incubated for 20 minutes at 4° C. Cell lysate was collected into 1.5 ml Eppendorf tube, and the lysate was sonicated at 4° C. for 2 minutes (5 second pulse at 30% power with 10 second intermissions). The lysate was centrifuged at 12,000 rpm for 15 minutes at 4° C. The supernatant was transferred to a fresh Eppendorf tube, and protein concentration was quantified using a BCA kit (Solarbio, PC0020-500). Mixed the cell lysate and 5×NuPAGE SDS Loading Buffer (Beyotime, P0015L), and heated at 95° C. for 10 minutes in a heat block. Prepared samples were stored at −80° C. until SDS-PAGE procedure.
Day 4. Loaded 15 μg protein from each sample onto NuPAGE® Novex 4-12% Bis-Tris Midi Gel, 26 W (Invitrogen, WG1403BOX) and ran the gel at 120V for 1.5 hours in 1×NuPAGE® MOPS SDS Running Buffer (Novex, NP0001). Electrotransferred to nitrocellulose membrane using dry transfer method (iBlot 2 Transfer Stacks, nitrocellulose, IB23001) with a program consisting of 20V for 1 minute, 23V for 4 minutes and 25V for 2 minutes. Blocked the membrane with 5% BSA (Solarbio, A8020) in 1×TBST (CST, 9997S) for 1 hour at room temperature. Incubated with KRAS antibody (LSBio, LS-C175665, clone 2C1) at 1:1000 dilution and β-actin antibody at 1:1000 dilution (CST, 4970S) in TBST containing 1% BSA (Solarbio, A8020) at 4° C. overnight.
Day 5. Washed nitrocellulose membrane three times with 1×TBST for 10 minutes each at room temperature. Incubated with fluorescently labeled secondary antibodies at 1:5000 dilution in TBST containing 1% BSA (anti-rabbit IgG, Licor, 926-32211; anti-mouse IgG, LI-COR, 926-68070) for 1 hour at room temperature. Washed membrane three times with TBST, 10 minutes each. Scanned the membrane on LiCOR scanner for fluorescent signal(s) and quantified KRAS bands and β-actin bands for normalization.
The data are reported in Table 2, wherein “A” indicates a DC50 of less than 1 μM; “B” indicates a DC50 of greater than or equal to 1 μM and less than 10 μM; and “C” indicates a DC50 of greater than or equal to 10 μM.

[2] = molecular target: T2, KRAS (G12D)-HiBit in AsPc-1-KRAS (G12D)-HiBit-KI cell (Homo sapiens, UniProt P01116, G12D); experiment: G12D HiBit assay; type: cell-based; conditions: 24 hours compound treatment, absolute DC50, read-out: Average PHA DC50
T2 construct: host or cells: AsPc-1-KRAS (G12D)-HiBit-KI cells (knock-in line)
Procedure, shortened: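 Degradation of endogenous HiBiT-tagged KRAS G12D in AsPc-1 knock-in cells read after 24 h compound exposure (0.015-300 nM, 3-fold steps) by Nano-Glo HiBiT lytic luminescence. Signal normalised to DMSO-only cells; absolute DC50 derived by curve fitting.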

T1 sequence (P01116 1-188 isoform P01116-2 G12D): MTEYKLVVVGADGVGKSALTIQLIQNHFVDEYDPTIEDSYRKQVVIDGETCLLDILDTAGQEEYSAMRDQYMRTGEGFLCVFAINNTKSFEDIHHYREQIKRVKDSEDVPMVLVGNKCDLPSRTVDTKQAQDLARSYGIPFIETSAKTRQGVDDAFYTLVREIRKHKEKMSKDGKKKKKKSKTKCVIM
T2 sequence (P01116 1-188 isoform P01116-2 G12D): as above

| SMILES | DC50 [1] | DC50 [2] |
| --- | --- | --- |
| C#Cc1c(F)ccc2cc(O)cc(-c3ncc4c(N5CC6CCC(C5)N6)nc(OC[C@@]56CCCN5[C@H](COC(=O)NCCCCCCCCCCCc5cccc7c5n(C)c(=O)n7C5CCC(=O)NC5=O)CC6)nc4c3F)c12 (stereo partly drawn) [Compound 011, [(3S,8S)-8-[[4-(3,8-diazabicyclo[3.2.1]octan-3-yl)-7-(8-ethynyl-7-fluoro-3-hydroxy-1-naphthyl)-8-fluoro-pyrido[4,3-d]pyrimidin-2-yl]oxymethyl]-1,2,3,5,6,7-hexahydropyrrolizin-3-yl]methylN-[11-[1-(2,6-dioxo-3-piperidyl)-3-methyl-2-oxo-benzimidazol-4-yl]undecyl]carbamate] | A (DC50 less than 1 μM) | – |
| C#Cc1c(F)ccc2cc(O)cc(-c3ncc4c(N5CC6CCC(C5)N6)nc(OC[C@@]56CCCN5[C@H](COC(=O)NCCCCCc5ccc7c(c5)n(C)c(=O)n7C5CCC(=O)NC5=O)CC6)nc4c3F)c12 (stereo partly drawn) [Compound 005, [(3S,8S)-8-[[4-(3,8-diazabicyclo[3.2.1]octan-3-yl)-7-(8-ethynyl-7-fluoro-3-hydroxy-1-napht-hyl)-8-fluoro-pyrido[4,3-d]pyrimidin-2-yl]oxymethyl]-1,2,3,5,6,7-hexahydropyrrolizin-3-yl]methyl N-[5-[1-(2,6-dioxo-3-piperidyl)-3-methyl-2-oxo-benzimidazol-5-yl]pentyl]carbamate] | C (DC50 greater than or equal to 10 μM) | – |
| C#Cc1c(F)ccc2cc(O)cc(-c3ncc4c(N5CC6CCC(C5)N6)nc(OC[C@@]56CCCN5[C@H](COC(=O)NCCCCCc5cccc7c5n(C)c(=O)n7C5CCC(=O)NC5=O)CC6)nc4c3F)c12 (stereo partly drawn) [Compound 007, [(3S,8S)-8-[[4-(3,8-diazabicyclo[3.2.1]octan-3-yl)-7-(8-ethynyl-7-fluoro-3-hydroxy-1-naphthyl)-8-fluoro-pyrido[4,3-d]pyrimidin-2-yl]oxymethyl]-1,2,3,5,6,7-hexahydropyrrolizin-3-yl]methyl N-[5-[1-(2,6-dioxo-3-piperidyl)-3-methyl-2-oxo-benzimidazol-4-yl]pentyl]carbamate] | C (DC50 greater than or equal to 10 μM) | – |
| C#Cc1c(F)ccc2cccc(-c3ncc4c(N5CC6CCC(C5)N6)nc(OC[C@@]56CCCN5[C@H](COC(=O)N5CCC(OC7CCN(c8cccc9c8n(C)c(=O)n9C8CCC(=O)NC8=O)CC7)CC5)CC6)nc4c3F)c12 (stereo partly drawn) [Compound 99, [(3S,8S)-8-[[4-(3,8-Diazabicyclo[3.2.1]octan-3-yl)-7-(8-ethynyl-7-fluoro-1-naphthyl)-8-fluoro-pyrido[4,3-d]pyrimidin-2-yl]oxymethyl]-1,2,3,5,6,7-hexahydropyrrolizin-3-yl]methyl 4-[[1-[1-(2,6-dioxo-3-piperidyl)-3-methyl-2-oxo-benzimidazol-4-yl]-4-piperidyl]oxy]piperidine-1-carboxylate] | – | < 100 nM |
| C#Cc1c(F)ccc2cccc(-c3ncc4c(N5CC6CCC(C5)N6)nc(OC[C@@]56CCCN5[C@H](COC(=O)N5CCC(COC7CN(Cc8cccc9c8n(C)c(=O)n9C8CCC(=O)NC8=O)C7)CC5)CC6)nc4c3F)c12 (stereo partly drawn) [Compound 63, [(3S,8S)-8-[[4-(3,8-diazabicyclo[3.2.1]octan-3-yl)-7-(8-ethynyl-7-fluoro-1-naphthyl)-8-fluoro-pyrido[4,3-d]pyrimidin-2-yl]oxymethyl]-1,2,3,5,6,7-hexahydropyrrolizin-3-yl]methyl4-[[1-[[1-(2,6-dioxo-3-piperidyl)-3-methyl-2-oxo-benzimidazol-4-yl]methyl]azetidin-3-yl]oxymethyl]piperidine-1-carboxylate] | – | 100 to 300 nM |
| C#Cc1c(F)ccc2cccc(-c3ncc4c(N5CC6CCC(C5)N6)nc(OC[C@@]56CCCN5[C@H](COC(=O)N5CCC(CN7CCC(c8ccc9c(c8)n(C)c(=O)n9C8CCC(=O)NC8=O)CC7)CC5)CC6)nc4c3F)c12 (stereo partly shown) [Compound 44] | – | < 100 nM |
| C#Cc1c(F)ccc2cccc(-c3ncc4c(N5CC6CCC(C5)N6)nc(OC[C@@]56CCCN5[C@H](COC(=O)NCCCCC(=O)N5CCN(c7ccc(N8CCC(=O)NC8=O)cc7)CC5)CC6)nc4c3F)c12 [Compound 147, [(3S,8S)-8-[[4-(3,8-Diazabicyclo[3.2.1]octan-3-yl)-7-(8-ethynyl-7-fluoro-1-naphthyl)-8-fluoro-pyrido[4,3-d]pyrimidin-2-yl]oxymethyl]-1,2,3,5,6,7-hexahydropyrrolizin-3-yl]methyl N-[5-[4-[4-(2,4-dioxohexahydropyrimidin-1-yl)phenyl]piperazin-1-yl]-5-oxo-pentyl]carbamate] | – | ≥ 300 nM |
| C#Cc1c(F)ccc2cc(O)cc(-c3ncc4c(N5CCCC6(CCO6)C5)nc(OC[C@@]56CCCN5[C@H](COC(=O)N5CCC(OCCCc7cccc8c7n(C)c(=O)n8C7CCC(=O)NC7=O)CC5)CC6)nc4c3F)c12 (stereo partly shown) [Compound 35] | – | < 100 nM |
| C#Cc1c(F)ccc2cccc(-c3ncc4c(N5CC6CCC(C5)N6)nc(OC[C@@]56CCCN5[C@H](COC(=O)N5CCC(OC7CCN(Cc8ccc9c(c8)n(C)c(=O)n9C8CCC(=O)NC8=O)CC7)CC5)CC6)nc4c3F)c12 (stereo partly shown) [Compound 52] | – | < 100 nM |
| C#Cc1c(F)ccc2cccc(-c3ncc4c(N5CC6CCC(C5)N6)nc(OC[C@@]56CCCN5[C@H](COC(=O)N5CCC(N7CCC(Cc8cccc9c8n(C)c(=O)n9C8CCC(=O)NC8=O)CC7)CC5)CC6)nc4c3F)c12 (stereo partly drawn) [Compound 65, [(3S,8S)-8-[[4-(3,8-Diazabicyclo[3.2.1]octan-3-yl)-7-(8-ethynyl-7-fluoro-1-naphthyl)-8-fluoro-pyrido[4,3-d]pyrimidin-2-yl]oxymethyl]-1,2,3,5,6,7-hexahydropyrrolizin-3-yl]methyl 4-[4-[[1-(2,6-dioxo-3-piperidyl)-3-methyl-2-oxo-benzimidazol-4-yl]methyl]-1-piperidyl]piperidine-1-carboxylate] | – | 100 to 300 nM |
| C#Cc1c(F)ccc2cccc(-c3ncc4c(N5CC6CCC(C5)N6)nc(OC[C@@]56CCCN5[C@H](COC(=O)N5CCC(COC7CN(c8ccc9c(c8)n(C)c(=O)n9C8CCC(=O)NC8=O)C7)CC5)CC6)nc4c3F)c12 (stereo partly drawn) [Compound 102, [(3S,8S)-8-[[4-(3,8-Diazabicyclo[3.2.1]octan-3-yl)-7-(8-ethynyl-7-fluoro-1-naphthyl)-8-fluoro-pyrido[4,3-d]pyrimidin-2-yl]oxymethyl]-1,2,3,5,6,7-hexahydropyrrolizin-3-yl]methyl4-[[1-[1-(2,6-dioxo-3-piperidyl)-3-methyl-2-oxo-benzimidazol-5-yl]azetidin-3-yl]oxymethyl]piperidine-1-carboxylate] | – | < 100 nM |
| C#Cc1c(F)ccc2cccc(-c3ncc4c(N5CCCC6(CCO6)C5)nc(OC[C@@]56CCCN5[C@H](COC(=O)N5CCC(OCCCc7cccc8c7n(C)c(=O)n8C7CCC(=O)NC7=O)CC5)CC6)nc4c3F)c12 (stereo partly shown) [Compound 36] | – | ≥ 300 nM |
| C#Cc1c(F)ccc2cccc(-c3ncc4c(N5C[C@H]6CC[C@@H](C5)N6)nc(OC[C@@]56CCCN5[C@H](COC(=O)N5CCC(CC7CCN(c8ccc9c(c8)n(C)c(=O)n9C8CCC(=O)NC8=O)CC7)CC5)CC6)nc4c3F)c12 (stereo partly drawn) [Compound 90, ((3S,7aS)-7a-(((4-((1R,5S)-3,8-Diazabicyclo[3.2.1]octan-3-yl)-7-(8-ethynyl-7-fluoronaphthalen-1-yl)-8-fluoropyrido[4,3-d]pyrimidin-2-yl)oxy)methyl)hexahydro-1H-pyrrolizin-3-yl)methyl4-((1-(1-(2,6-dioxopiperidin-3-yl)-3-methyl-2-oxo-2,3-dihydro-1H-benzo[d]imidazol-5-yl)piperidin-4-yl)methyl)piperidine-1-carboxylate] | – | < 100 nM |
